Reference: patent US20070292351A1, “Assay for efficacy of histone deacetylase inhibitors” (Methylgene, Inc., priority 2006, published 2007)
“And” between values parts separate entries of the source, which are not always exact repeats. Identical values can stand only once.

Experiments:
[1] = test system: peripheral blast cells from AML patients; experiment: Microarray gene expression analysis, AML patients treated with MGCD0103 in vivo; set-up: species or system human; settings: for Fold of Induction of CCL4 transcription / Fold of Induction of CCL7 transcription / Fold of Induction of IFNG transcription / Fold of Induction of THBS1 transcription: AML Patient A (clinical response)
Protocol: Whole blood from either consenting healthy volunteers or consenting patients was centrifuged at 2500 rpm for 10 minutes at ambient temperature in a Sorvall RT-7 centrifuge (Mandel Scientific Co., Guelph, Ontario). Plasma was removed and buffy coat was collected. Five volumes of Erythrocyte Lysis Buffer (EL) (Qiagen Canada Inc., Mississauga, Ontario) were added into buffy coat. Buffy coat was incubated on ice for 20 minutes before it was centrifuged at 400 g for 10 minutes at 4° C. Supernatant was removed and buffy coat was washed twice with EL buffer and re-centrifuged. Buffy coat was resuspended in RPMI media and cells were counted with trypan blue exclusion. To isolate PBMCs, buffy coat cells were centrifuged over Lymphoprep (Axis-Shield, 1114544), and any remaining erythrocytes in the sample were lysed by treatment with EL lysis buffer (Qiagen, 79217). The cell pellets are washed and then re-suspended in RPMI containing 10% FBS.
(§1) Biological analysis was performed using Biointerpreter software.
(§2) Human patients with either solid tumors or leukemia/MDS diseases were enrolled in phase I studies with consensus forms. MGCD0103 were dosed into patients orally every other day (day 1, day 3, day 5 […]). Blood samples were withdrawled by using the Vacutainer sodium-heparin blood collection tubes (Becton Dickinson Laboratories, Franklin Lakes, N.J.) and shipped to the test site within 24 hours on ice-pack. Baseline samples were drawn immediately prior to the first drug dose, while the 24 hour samples were drawn at 24 hours post the first drug dose. The 48 hours samples were drawn at 48 hours post the first dose. For the 1 week samples, blood was drawn 72 hours after day 5 dose (3 accumulated doses during week 1).

human RPMI8226 cells = experiment: IL-6 transcription in RPMI8226 cells; type: cell-based; settings: 24 hours (FIG. 14)
Protocol: Quantitative PCR with SYBR Green I detection with Mastercycler® ep realplex (Eppendorf) was performed using LightCycler® 480 SYBR Green I Master (Roche Diagnostics). SYBR Green I assays were performed with 600 nM primers. All other reaction conditions were as described by the manufacturer. Amplification conditions were 5 minutes of initial denaturation at 95° C., followed by 40 cycles of each 15 seconds at 95° C., 15 seconds at 63.4° C., 20 seconds at 68° C., a melting curve from 60° C. to 95° C. was recorded. Quantification was performed using Pfaffl method, a relative quantification method in real-time PCR (Nucleic Acids Research 2001 29:2002-2007). Primers were synthesized by Invitrogen (Invitrogen-Canada, Burlington, Ont.).

[2] = test system: human leukemic MV-4-11 cells; experiment: Microarray gene expression analysis, MV-4-11 cells in vitro; type: cell-based; settings: MV-4-11 in vitro, 1 uM, c2-c5 = sample 1, 2, 3, sample 3 dye swap
Protocol: Human cancer cell lines were from American Type Culture Collection (Manassas, Va.) and were all cultured following the vendor's instructions.
as §1

IL-6 = IL-6 protein levels in plasma by ELISA; type: in vivo, human; settings: leukemia patients, Day 8, ELISA (FIG. 17)
Protocol: FIG. 17 Induction of plasma IL-6 from leukemia patients from treated with MGCD0103 at Day 8, analyzed by ELISA assays.
Patient plasma samples at […] were analyzed by ELISA
as §2
Blood from patients was centrifuged at 2500 RPM for 10 min at 10° C. Plasma was separated and frozen until used. Plasma was thawed, and spun again at 2500 RPM for 10 min at 10° C. The level of IL-6 was determined by ELISA (eBioscience, San Diego, Calif.), following the manufacturer's instructions. IL-6 concentration (pg/ml) in the samples was calculated from a standard curve generated by using standard IL-6 also provided in the kit. […] All the data was calculated and plotted using Excel.

With `Nc1ccccc1NC(=O)c1ccc(CNc2nccc(-c3cccnc3)n2)cc1` [MGCD0103] the “Fold of Induction of CCL4 transcription” value ([1]; 24 hr) was 1.4 fold, the “Fold of Induction of CCL7 transcription” value ([1]; 24 hr) was 2.3 fold and the “Fold of Induction of IFNG transcription” value ([1]; 24 hr) was 1.4 fold. For the same compound, the “Fold of Induction of THBS1 transcription” value ([1]; 24 hr) was 1.4 fold, the “Fold of Induction of CCL4 transcription” value ([1]; day 8) was 12.2 fold and the “Fold of Induction of CCL7 transcription” value ([1]; day 8) was 7.3 fold. For the same compound, the “Fold of Induction of IFNG transcription” value ([1]; day 8) was 2.5 fold, the “Fold of Induction of THBS1 transcription” value ([1]; day 8) was 2.8 fold and the “Induction of transcription of a subset of proapoptotic proteins” value ([1]; peripheral blast cells, D8 vs 0 h, AML Patient A (response), in contrast to Patients B, C, D (FIG. 11)) was “Induction”. The “induction of transcription of the Table 5 genes (CCL7, CCL4, IFNG, THBS1)” value ([1]; three other AML patients without response) was “<= 1 fold”, the “dose-dependent induction of IL-6 transcription” value (human RPMI8226 cells) was “dose-dependent induction” and the “Ratio vs control, ADORA1” value [2] was 3.6 and 5.4 and 5.1. The “Ratio vs control, AHR” value [2] was 11.3 and 10.5 and 13.1 and 10.2, the “Ratio vs control, APOE” value [2] was 5.9 and 6.3 and 6.0 and 6.1 and the “Ratio vs control, AXUD1” value [2] was 2.5 and 3.9 and 3.1. For the same compound, the “Ratio vs control, BMF” value [2] was 6.0 and 7.4 and 6.7 and 7.1, the “Ratio vs control, CARD10” value [2] was 2.7 and 4.4 and 3.0 and 3.9 and the “Ratio vs control, CASP5” value [2] was 2.7 and 2.5 and 3.0 and 2.6. For the same compound, the “Ratio vs control, CASP7” value [2] was 5.0 and 7.2 and 5.2 and 5.8, the “Ratio vs control, CAST” value [2] was 2.7 and 3.0 and 2.5 and 3.2 and the “Ratio vs control, CD40” value [2] was 8.0 and 7.2 and 7.0 and 8.7. For the same compound, the “Ratio vs control, CDKN1A” value [2] was 4.4 and 4.0 and 4.6 and 3.9, the “Ratio vs control, CLU” value [2] was 20.2 and 13.8 and 14.7 and 14.4 and the “Ratio vs control, DNASE2” value [2] was 10.5 and 11.4 and 12.1 and 12.9. The “Ratio vs control, EIF2AK2” value [2] was 17.9 and 21.1 and 18.1 and 26.7, the “Ratio vs control, GPR65” value [2] was 7.8 and 6.5 and 7.9 and 6.6 and the “Ratio vs control, HIPK2” value [2] was 4.1 and 6.6 and 4.6 and 4.2. For the same compound, the “Ratio vs control, IL1B” value [2] was 9.6 and 11.2 and 8.5 and 11.4, the “Ratio vs control, IL3RA” value [2] was 4.4 and 4.3 and 5.1 and 3.3 and the “Ratio vs control, IL18” value [2] was 4.5 and 7.9 and 6.5 and 5.5. The “Ratio vs control, LY86” value [2] was 4.5 and 3.6 and 3.8 and 4.3, the “Ratio vs control, MAP3K14” value [2] was 2.6 and 2.8 and the “Ratio vs control, MX1” value [2] was 35.8 and 27.5 and 38.0 and 23.2. For the same compound, the “Ratio vs control, NALP1” value [2] was 7.3 and 7.4 and 6.4, the “Ratio vs control, NGFR” value [2] was 3.0 and 2.7 and 2.6 and 2.8 and the “Ratio vs control, PDE1B” value [2] was 4.3 and 3.4 and 4.8 and 3.6. The “Ratio vs control, PPP3CA” value [2] was 2.7 and 3.0 and 3.3 and 2.6, the “Ratio vs control, PRKAR2B” value [2] was 10.8 and 7.2 and 11.1 and 7.6 and the “Ratio vs control, TNFRSF21” value [2] was 4.1 and 6.4 and 4.7 and 5.2. The “Ratio vs control, TNFRSF25” value [2] was 4.2 and 4.0 and 4.4 and 3.6, the “Ratio vs control, TNFSF10” value [2] was 7.4 and 7.2 and 10.1 and 5.6 and the “Ratio vs control, TNFSF14” value [2] was 5.1 and 3.7 and 3.9 and 4.6. The “Ratio vs control, BNIP3L” value ([2]; gene listed twice (r23, r58)) was 4.9 and 3.2 and 3.4 and 2.6 and 3.5 and 2.9, the “Ratio vs control, CASP4” value ([2]; gene listed twice (r64, r66)) was 2.7 and 2.8 and 2.6 and 2.9 and 3.0 and 2.5 and 3.1 and the “induction of plasma IL-6” value (IL-6) was “induction”.
